Source: EP4781984A1 (Beyang Therapeutics Co., Ltd., priority 2023, dated 2025)

Tests used:
VEGFR2 = target: T1, VEGFR2 (Homo sapiens, UniProt P35968); test: Kinase inhibitory activity, Mobility Shift Assay (VEGFR2); type: biochemical
T1 construct: purchased Carna 08-191
Method in brief: (§1)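 Each kinase pre-incubated 10 min at room temperature, then FAM-labelled peptide with MgCl2 and ATP added; reaction at 28 °C for kinase-dependent times before stop. Substrate conversion read by mobility shift; IC50 from a four-parameter fit of % inhibition against log concentration.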

EGFR = target: T2, EGFR (Homo sapiens, UniProt P00533); test: Kinase inhibitory activity, Mobility Shift Assay (EGFR); type: biochemical
T2 construct: purchased Carna 08-115
Method in brief: as §1

VEGFR1 = target: T3, VEGFR1 (Homo sapiens, UniProt P17948); test: Kinase inhibitory activity, Mobility Shift Assay (VEGFR1); type: biochemical
T3 construct: purchased Invitrogen PR6731B
Protocol: (§2) Assay for Inhibitory Activity of Compounds Against VEGFR and EGFR Kinases
(§3) This assay directly monitors the inhibitory activity of compounds on kinase phosphorylation by measuring non-phosphorylated and phosphorylated substrates in the kinase reaction using Mobility Shift Assays/IMAP™ analysis. Table 2. Reagents and Instruments
(§4) Kinase and DTT were added to 1X kinase buffer to form a 2.5X kinase solution; 10 µL of the 2.5X kinase solution was transferred to a 384-well reaction plate, and 1X kinase buffer was added to the negative control wells. The plate was incubated at room temperature for 10 minutes; FAM-labeled peptide, MgCl2, ATP, and other reagents were added to 1X kinase buffer to form a 2.5X substrate solution; 10 µL of the above 2.5X substrate solution was transferred to the 384-well reaction plate; the plate was incubated at 28°C for varying times, and then 25 µL of stop solution was added to the 384-well reaction plate to terminate the reaction. Conversion rate data were read on a CaliperEZ Reader II. […] IC50 values were fitted using XLFit excel add-in version 5.4.0.8. Y = Bottom + (Top−Bottom)/(1 + […]) [formula]
(§5) X is the log value of compound concentration, Y is the inhibition rate (% inhibition).

VEGFR3 = target: T4, VEGFR3 (Homo sapiens, UniProt P35916); test: Kinase inhibitory activity, Mobility Shift Assay (VEGFR3); type: biochemical
T4 construct: purchased Invitrogen PV4129
Protocol: as §2, §3, §4, §5

[1] = target: T5, VEGFR2 autophosphorylation (pVEGFR2) in HUVEC cells (Homo sapiens, UniProt P35968); test: Inhibition of VEGF-induced VEGFR2 phosphorylation in HUVEC cells (ELISA); type: cell-based; settings: 50 ng/mL human VEGF, compound 1 hour
T5 construct: endogenous in cells; host or cells: HUVEC
Source text: Assay for Compound Inhibition of VEGFR2 Phosphorylation in HUVEC Cells
VEGF is a potent growth factor that promotes angiogenesis and vascular permeability. Vascular endothelial growth factor receptor 2 (VEGFR2) is the primary receptor for VEGF-induced endothelial cell signaling. Upon ligand binding, VEGFR2 undergoes autophosphorylation and is activated. The primary function from VEGFR2 signaling is to induce blood vessel formation during development and after tissue injury, and to bypass blocked vessels. Pathologically, VEGF and VEGFR2 are involved in tumor angiogenesis and vascular leakage. They are considered major players in many different cancers and ocular diseases accompanied by pathological neovascularization. This assay uses ELISA to measure the compound's ability to inhibit VEGF-induced VEGFR2 autophosphorylation (pVEGFR2) in HUVEC cells. Table 7. Reagents and Instruments
Before cell seeding, cells reached 60%-80% confluency in cell culture flasks. The cell suspension was diluted with pre-warmed complete medium to 4.5×10^6 cells/mL. 80 microliters of cell suspension was added to all wells of a 96-well cell plate (Corning-3599); incubated overnight at 37°C and 5% CO2. Compound powder was dissolved in DMSO to 10 mM and stored in a nitrogen cabinet. Compound dilution master plate: In a 96-well V-bottom plate (Axygen- WIPP02280), reference compound Ponatinib or test compound concentrations were added, starting from 5 mM (5 microliters of 10 mM compound solution plus 5 microliters DMSO) with 3-fold serial dilutions for a total of 8 concentration points. […] 20 microliters of diluted compound was transferred from the intermediate plate to the cell plate. The cell plate was then incubated at 37°C and 5% CO2 for 1 hour. […] It was gently shaken for 30 seconds, and the absorbance was measured within 30 minutes using a SpectraMax® 340 PC 384 Absorbance Microplate Reader, reading the optical density value at 450 nm. […]
All other values are expressed as a percentage of these controls (inhibition rate). […]

[2] = Ophthalmic formulations based on polyethylene glycol series vehicles: composition and state (Example 7); type: physicochemical
Method in brief: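 Compound was dissolved, or nearly dissolved, in PEG 400 by sonication (heated to 50 °C if needed), then mixed into Tris-HCl buffer containing hydroxypropyl-β-cyclodextrin, poloxamer 188 and gellan gum or another viscosity modifier. Physical state was scored visually as solution, near-clear solution, suspension or gel.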

[3] = Table 15: 10 mg/mL, Polyethylene glycol 400 10, Hydroxypropyl-β-cyclodextrin 10, Gellan Gum Gelrite 0.3, Poloxamer 188 1, Tris solution and Citric acid
[4] = Table 16: 2 mg/mL, Polyethylene Glycol 400 5, Poloxamer 188 1, Hydroxypropyl-β-cyclodextrin 6, Gellan Gum Gelrite 0.15, Tris-HCl Buffer (pH 6.8) 25mM

T4 sequence (P35916 25-1363): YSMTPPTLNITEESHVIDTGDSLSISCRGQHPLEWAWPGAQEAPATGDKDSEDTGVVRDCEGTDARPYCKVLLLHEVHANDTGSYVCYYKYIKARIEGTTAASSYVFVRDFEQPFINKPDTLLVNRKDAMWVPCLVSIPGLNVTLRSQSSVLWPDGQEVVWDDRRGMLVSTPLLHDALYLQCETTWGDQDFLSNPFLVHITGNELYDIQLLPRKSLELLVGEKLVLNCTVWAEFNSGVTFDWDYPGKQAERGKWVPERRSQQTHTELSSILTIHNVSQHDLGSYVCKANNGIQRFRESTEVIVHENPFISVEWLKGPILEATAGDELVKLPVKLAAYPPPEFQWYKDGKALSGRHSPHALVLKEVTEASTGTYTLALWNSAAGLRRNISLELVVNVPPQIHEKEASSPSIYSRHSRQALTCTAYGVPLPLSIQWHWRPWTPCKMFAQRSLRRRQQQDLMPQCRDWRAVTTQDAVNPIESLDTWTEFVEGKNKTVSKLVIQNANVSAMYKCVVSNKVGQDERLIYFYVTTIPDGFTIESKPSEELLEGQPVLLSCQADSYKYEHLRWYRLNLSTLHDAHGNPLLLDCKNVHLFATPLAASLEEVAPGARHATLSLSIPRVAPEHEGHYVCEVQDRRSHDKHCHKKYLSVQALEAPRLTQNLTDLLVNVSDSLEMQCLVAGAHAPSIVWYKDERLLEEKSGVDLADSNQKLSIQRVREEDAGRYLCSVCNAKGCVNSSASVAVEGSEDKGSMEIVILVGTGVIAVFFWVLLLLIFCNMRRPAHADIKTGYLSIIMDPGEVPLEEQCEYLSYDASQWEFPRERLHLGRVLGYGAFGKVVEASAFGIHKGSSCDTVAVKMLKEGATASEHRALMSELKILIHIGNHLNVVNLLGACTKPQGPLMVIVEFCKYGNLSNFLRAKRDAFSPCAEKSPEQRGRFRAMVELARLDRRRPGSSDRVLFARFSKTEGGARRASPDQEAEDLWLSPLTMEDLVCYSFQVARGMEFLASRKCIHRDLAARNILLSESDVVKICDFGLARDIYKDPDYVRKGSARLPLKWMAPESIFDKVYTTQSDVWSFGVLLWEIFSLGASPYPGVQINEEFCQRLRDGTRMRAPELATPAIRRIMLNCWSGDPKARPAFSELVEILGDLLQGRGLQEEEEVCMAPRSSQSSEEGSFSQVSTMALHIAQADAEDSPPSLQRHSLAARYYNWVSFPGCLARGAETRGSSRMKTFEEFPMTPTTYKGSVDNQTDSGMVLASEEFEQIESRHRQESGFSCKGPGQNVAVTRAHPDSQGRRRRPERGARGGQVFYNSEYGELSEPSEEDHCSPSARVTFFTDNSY
T2 sequence (P00533 25-1210): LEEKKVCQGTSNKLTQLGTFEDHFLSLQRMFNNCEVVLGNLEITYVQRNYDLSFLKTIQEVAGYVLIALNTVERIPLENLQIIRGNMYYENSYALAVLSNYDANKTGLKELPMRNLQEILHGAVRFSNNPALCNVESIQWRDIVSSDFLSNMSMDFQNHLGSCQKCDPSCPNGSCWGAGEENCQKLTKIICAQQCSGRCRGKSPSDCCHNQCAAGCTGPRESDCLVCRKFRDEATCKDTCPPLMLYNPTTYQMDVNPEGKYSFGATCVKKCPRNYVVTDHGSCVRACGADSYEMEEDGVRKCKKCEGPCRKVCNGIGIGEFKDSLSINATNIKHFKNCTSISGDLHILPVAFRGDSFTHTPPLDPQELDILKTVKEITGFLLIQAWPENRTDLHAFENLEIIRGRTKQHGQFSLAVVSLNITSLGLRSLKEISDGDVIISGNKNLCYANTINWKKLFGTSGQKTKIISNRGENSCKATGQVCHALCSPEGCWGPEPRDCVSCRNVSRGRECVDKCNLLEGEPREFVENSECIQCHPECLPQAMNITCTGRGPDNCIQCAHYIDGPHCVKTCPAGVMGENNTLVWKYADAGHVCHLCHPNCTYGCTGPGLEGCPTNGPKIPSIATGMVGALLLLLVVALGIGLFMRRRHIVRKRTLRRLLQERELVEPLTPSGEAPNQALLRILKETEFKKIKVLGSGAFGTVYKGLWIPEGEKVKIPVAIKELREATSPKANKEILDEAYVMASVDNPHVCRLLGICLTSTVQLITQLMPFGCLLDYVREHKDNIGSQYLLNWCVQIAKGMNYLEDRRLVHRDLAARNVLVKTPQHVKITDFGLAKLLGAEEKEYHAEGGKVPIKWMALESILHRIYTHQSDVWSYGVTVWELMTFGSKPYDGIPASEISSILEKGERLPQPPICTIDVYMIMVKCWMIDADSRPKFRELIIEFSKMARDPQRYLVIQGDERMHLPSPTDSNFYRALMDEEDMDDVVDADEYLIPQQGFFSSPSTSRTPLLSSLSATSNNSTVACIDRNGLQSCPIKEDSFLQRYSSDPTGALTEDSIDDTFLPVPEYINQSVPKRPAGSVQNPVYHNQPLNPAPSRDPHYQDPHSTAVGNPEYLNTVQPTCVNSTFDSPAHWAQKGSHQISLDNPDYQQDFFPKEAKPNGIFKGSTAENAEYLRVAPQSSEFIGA
T3 sequence (P17948 27-1338): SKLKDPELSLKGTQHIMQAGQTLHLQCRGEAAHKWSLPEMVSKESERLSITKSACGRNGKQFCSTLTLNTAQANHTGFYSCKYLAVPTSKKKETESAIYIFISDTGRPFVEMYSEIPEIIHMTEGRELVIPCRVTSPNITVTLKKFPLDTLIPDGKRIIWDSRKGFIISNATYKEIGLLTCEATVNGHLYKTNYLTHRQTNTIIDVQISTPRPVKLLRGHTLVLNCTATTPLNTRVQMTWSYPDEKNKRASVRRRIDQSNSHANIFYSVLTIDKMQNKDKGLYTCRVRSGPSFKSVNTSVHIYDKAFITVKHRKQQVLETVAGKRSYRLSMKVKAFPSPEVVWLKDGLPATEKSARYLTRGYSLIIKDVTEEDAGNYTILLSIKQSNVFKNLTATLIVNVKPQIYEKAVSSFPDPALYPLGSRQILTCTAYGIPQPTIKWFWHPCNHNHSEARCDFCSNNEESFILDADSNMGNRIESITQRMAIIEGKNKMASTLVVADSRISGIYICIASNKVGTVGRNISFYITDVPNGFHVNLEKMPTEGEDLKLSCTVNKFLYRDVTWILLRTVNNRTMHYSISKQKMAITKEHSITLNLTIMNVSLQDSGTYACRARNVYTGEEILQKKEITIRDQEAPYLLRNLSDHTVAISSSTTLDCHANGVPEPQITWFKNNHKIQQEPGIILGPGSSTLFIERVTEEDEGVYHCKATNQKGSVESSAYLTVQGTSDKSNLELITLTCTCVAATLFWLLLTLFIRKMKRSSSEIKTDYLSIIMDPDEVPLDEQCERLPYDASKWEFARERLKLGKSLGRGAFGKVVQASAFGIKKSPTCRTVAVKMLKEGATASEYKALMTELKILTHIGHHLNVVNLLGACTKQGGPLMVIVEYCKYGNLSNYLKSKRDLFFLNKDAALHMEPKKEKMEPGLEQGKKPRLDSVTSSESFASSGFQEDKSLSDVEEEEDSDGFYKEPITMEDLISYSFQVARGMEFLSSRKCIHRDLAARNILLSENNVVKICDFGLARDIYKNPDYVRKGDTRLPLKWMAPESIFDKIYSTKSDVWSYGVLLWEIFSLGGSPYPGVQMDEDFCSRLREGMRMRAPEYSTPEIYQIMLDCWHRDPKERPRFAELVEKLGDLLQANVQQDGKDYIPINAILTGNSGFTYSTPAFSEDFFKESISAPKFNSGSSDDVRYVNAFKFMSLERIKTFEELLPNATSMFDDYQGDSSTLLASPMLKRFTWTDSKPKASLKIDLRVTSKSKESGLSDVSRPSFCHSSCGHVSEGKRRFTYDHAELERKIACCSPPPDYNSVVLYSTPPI

| SMILES | IC50 (VEGFR2) [nM] | IC50 (EGFR) [nM] | IC50 (VEGFR1) [nM] | IC50 (VEGFR3) [nM] | IC50 [1] [nM] | State Description: pH [2, 3] | State Description: state [2, 3] | Osmolality (mOsm/kg) [2, 4] [mOsm/kg] | State Description: pH [2, 4] | State Description: state [2, 4] |
| --- | --- | --- | --- | --- | --- | --- | --- | --- | --- | --- |
| O=C(NC1CC1)c1cccc(F)c1Sc1ccc2c(/C=C/c3cnn(CCCN4CCCC4)c3)n[nH]c2c1 [Compound I-44, N-cyclopropyl-3-fluoro-2-({3-[(E)-2-{1-[3-(pyrrolidin-1-yl)propyl]-1H-pyrazol-4-yl}ethenyl]-1H-indazol-6-yl}sulfanyl)benzamide] | 1 to 10 | 6000 to 60000 | 1 to 10 | 10 to 100 | 1 to 5 |  |  |  |  |  |
| CCNC(=O)c1cc(F)ccc1Sc1ccc2c(/C=C/c3ccc(CN4CCCC4)cn3)n[nH]c2c1 [Compound I-97, N-ethyl-5-fluoro-2-({3-[(E)-2-{5-[(pyrrolidin-1-yl)methyl]pyridin-2-yl}ethenyl]-1H-indazol-6-yl}sulfanyl)benzamide] |  |  |  |  |  | ~5.5 | gel | ~300 | ~7 | solution |
